Measured values from the OPERA property sets (Mansouri et al. 2018).
Peptide text beside a SMILES is read from it.

SMILES | logP
C[C@@H]1C[C@H]2[C@@H]3CCC4=CC(=O)C=C[C@]4(C)[C@@]3(F)[C@@H](O)C[C@]2(C)[C@H]1C(=O)CO | 2.35
O=[N+]([O-])CCc1ccccc1 | 2.08
CCCCCCCOC(=O)c1ccc(O)cc1 | 4.83
CCN1CC(C(O)C(CC2CCCCC2)NC(=O)C(Cc2cnc[nH]2)NC(=O)C(CC(=O)N(C)CCO)Cc2ccccc2)OC1=O (configuration not stated) | 1.94
CCCBr | 2.1
CCCCOC(N)=O | 0.85
CN(C)C(N(C)C)=S(I)c1c(Cl)cc(Cl)cc1Cl (configuration not stated) | 0.05
CCOC(=O)C=Cc1ccc(O)c(O)c1 | 2.56
N#Cc1ccco1 | 0.96
CC(C)C(Br)C(=O)NC(N)=O (configuration not stated) | 1.14
O=[N+]([O-])c1cccc(Cl)c1Cl | 3.05
CCCCOC(=O)c1ccc(C(=O)OCCCC)cc1 | 5.53
CON(C)C(=O)Nc1ccc(C(C)=O)cc1 | 1.22
CC(C)C[N+](=O)[O-] | 1.4
CC1=CC(=O)c2ccccc2C1=O | 2.2
CC(C)C(O)C(C(=O)O)c1ccc(-c2ccccc2)cc1 (configuration not stated) | 3.84
CC(=O)Oc1ccccc1[N+](=O)[O-] | 1.55
O=[N+]([O-])c1ccc(F)cc1 | 1.8
CSc1ncc2ccccc2n1 | 2.5
CC(O)CO (configuration not stated) | -0.92
CCNc1nc(NC(C)(C)C)nc(SC)n1 | 3.74
CCNC | 0.15
O=C(NC(CO)C(O)c1ccc([N+](=O)[O-])cc1)C(Cl)(Cl)Cl (configuration not stated) | 1.97
Clc1cccc2cccnc12 | 2.44

SMILES | logP
CC(=O)NC(CCC(=O)O)C(=O)NC(Cc1ccccc1)C(=O)NC(CC(C)C)C(N)=O (stereo not drawn) (Ac-Glu-Phe-Leu-NH2; configuration not given here) | 0.32
CCOC(=O)C(C)NC(=O)CCCCSc1ncnc2nc[nH]c12 (configuration not stated) | 1.51
C=CCC1(CC)C(=O)NC(=O)NC1=O | 0.95
COc1ccccc1C | 2.74
c1ccc2cnncc2c1 | 0.57
Nc1ncnc2[nH]cnc12 | -0.09
O=C(O)Cc1ccccc1Nc1c(Cl)cccc1Br | 4.64
CCN(CC)CCCN(c1ccccc1)C1Cc2ccccc2C1 | 4.86
Clc1ccc(-c2ccc(Cl)cc2Cl)c(Cl)c1 | 6.29
COc1ccccc1NCC(N)=O | 0.78
O=C1CCC(=O)N1c1ccccc1[N+](=O)[O-] | 0.36
NC(Cc1ccc(O)c(O)c1)C(=O)OCc1cccc(C(F)(F)F)c1 (configuration not stated) | 2.29
CC(=O)Nc1ccc([N+](=O)[O-])cc1 | 1.66
CN(N=O)C(N)=O | -0.03
CCCCOC(=O)n1cnc(CC(NC(=O)C2CCC(=O)N2)C(=O)N2CCCC2C(N)=O)c1 (configuration not stated) | -0.47
CN(C)c1nc(Cl)nc(N(C)C)n1 | 2.31
CC(C)Cl | 1.9
NCc1cccnc1 | -0.32
C=CCC1(CC=C)C(=O)NC(=O)N(C)C1=O | 1.55
CCC(=O)O[C@]1(C(=O)CO)CC[C@H]2[C@@H]3CCC4=CC(=O)CC[C@]4(C)[C@H]3[C@@H](O)C[C@@]21C | 2.7
Cc1ccccc1C | 3.12
O=C(O)CCCc1ccccc1 | 2.42
Nc1nccs1 | 0.38
Oc1ccc(Cn2cc[nH]c2=S)cc1F | 1.12

SMILES | logP
CC(=O)N[C@@H](C)C(=O)N[C@@H](CC(C)C)C(N)=O (Ac-Ala-Leu-NH2) | -0.54
C=CCC | 2.4
C[C@]12CC[C@H](O)CC1=CC[C@@H]1[C@@H]2CC[C@]2(C)C(=O)CC[C@@H]12 | 3.23
C#CC(C)N(C)C(=O)Nc1ccc(Cl)cc1 (configuration not stated) | 3
CCOC(=O)[C@H](CCc1ccccc1)N[C@@H](C)C(=O)N1CCC[C@H]1C(=O)O | 0.07
CC(=O)NCCCOc1cccc(CN2CCCCC2)c1 | 2.15
CC(=O)c1ccc(C)cc1 | 2.1
Oc1c(F)cc(Cn2cc[nH]c2=S)cc1F | 1.08
O=[N+]([O-])C=Cc1ccoc1 | 1.41
Oc1nc(Cl)c(Cl)cc1Cl | 3.21
Ic1cn[nH]c1 | 1.7
NC(=O)Nc1ccc(F)cc1 | 1.04
CC(=O)OCC(COC(C)=O)OC(C)=O | 0.25
CON(C)C(=O)Nc1cccc(C(F)(F)F)c1 | 2.64
COP(=S)(OC)Oc1ccc(Sc2ccc(OP(=S)(OC)OC)cc2)cc1 | 5.96
O=C(O)COc1ccc2c(c1)CCC2 | 2.33
Oc1c(Cl)cccc1Cl | 2.75
CCOC(=O)C(=O)OCC | 0.56
CN(C)/N=N/c1ccc2n[nH]cc2c1 | 2.36
c1ccc(COc2cccc3cccnc23)cc1 | 3.51
c1cncc(CN2CCCC2)c1 | 1.1
CC1(C)Oc2c(O)cccc2C1=O | 1.87
CC(C)COC(=O)n1cnc(CC(NC(=O)C2CCC(=O)N2)C(=O)N2CCCC2C(N)=O)c1 (configuration not stated) | -0.44
CNC | -0.38

SMILES | logP
O=C(O)c1ccc(O)c(O)c1 | 0.86
FS(F)(F)(F)(F)c1ccccc1 | 3.36
Cc1ccc(Cl)cc1NC1=NCCN1 | 1.83
COc1cc(C(O)CN)ccc1O (configuration not stated) | -1.05
O=C1NC(=O)C(c2cccnc2)N1 (configuration not stated) | -0.95
CN1CCCC1 | 0.92
COc1ccc(OC)c(Cc2cnc3nc(N)nc(N)c3c2C)c1 | 2.13
Oc1cc(Cl)c(Cl)cc1Cl | 3.72
O=C(O)c1ccccc1Cl | 2.05
CCCC(=NOCC)C1C(=O)CC2(CC(C)CC(C)C2)OC1=O (configuration not stated) | 4.48
CNCCN(C)C | -0.2
NS(=O)(=O)c1nc2ccc(Cl)cc2s1 | 2.1
CC(=O)C1CCC2C3CCC4=CC(=O)CCC4(C)C3C(O)CC12C (configuration not stated) | 2.36
CCOP(=S)(OCC)Oc1ccc(SC)cc1 | 4.16
Cc1ccc(-c2cc3ccccn3c2)cc1 | 4.96
Nc1ncc([N+](=O)[O-])s1 | 0.83
CC(=O)Nc1cccc(C(C)=O)c1 | 1.06
O=C(NC(CO)C(O)c1ccc(I)cc1)C(Cl)Cl (configuration not stated) | 2.22
CCCOCc1ccccc1NC(=O)OCCN1CCCCC1 | 3.34
c1ccc2nccnc2c1 | 1.32
CCCOC(=O)c1ccccc1C(=O)OCCC | 3.27
CC(=O)NC(CO)C(O)c1ccc([N+](=O)[O-])cc1 (configuration not stated) | -0.03
CC(=O)C(F)(F)F | 0.2
Nc1ccc(Cc2ccc(N)cc2)cc1 | 1.59

SMILES | logP
c1cncc([C@@H]2CCCCN2)c1 | 0.97
O=c1[nH]cc(F)c(=O)[nH]1 | -0.89
O=CNC(=O)C1CCC1 | -0.7
C1CCOC1 | 0.46
O=C1NCCN1c1ncc([N+](=O)[O-])s1 | 0.95
CCC(NC(C)=O)C(=O)OC (configuration not stated) | -0.17
CCCCCF | 2.33
Cc1cc(Cl)ccc1NC1=NCCN1 | 1.8
CCOc1ccc2nc(S(N)(=O)=O)sc2c1 | 2.01
CC(=O)NCC(=O)N[C@@H](CC(C)C)C(=O)NCC(N)=O (Ac-Gly-Leu-Gly-NH2) | -1.23
Oc1ccc(C(F)(F)F)cc1 | 2.82
CCc1cccc(OCC(=O)O)c1 | 2.25
NS(=O)(=O)CCCOc1ccc([N+](=O)[O-])cc1 | 0.97
OCCOc1ccccc1 | 1.16
Cc1cccc(OCC(=O)O)c1 | 1.78
C=CCCCCCCC | 5.15
Nc1ccc(Cl)cc1 | 1.83
N#CCc1ccc([N+](=O)[O-])cc1 | 1.37
COC1C(O)C(C)OC(OC2CCC3(C)C(CCC4C3CCC3(C)C(C5=CC(=O)OC5)CCC43O)C2)C1O (configuration not stated) | 2.1
CCCOC(C)=O | 1.24
O=[N+]([O-])c1cccc2ncccc12 | 1.86
c1ccc2oncc2c1 | 1.63
NS(=O)(=O)c1ccc(C(=O)c2ccncc2)cc1 | 0.56
O=C1OC(c2ccccc2)c2ccccc21 (configuration not stated) | 2.64

SMILES | logP
N#Cc1ccc(C(O)C(CO)NC(=O)C(Cl)Cl)cc1 (configuration not stated) | 0.78
c1ccc(N2CCCCC2)cc1 | 2.98
O=[N+]([O-])C=Cc1ccsc1 | 1.94
CCCCNC1=CC(=O)c2ccccc2C1=O | 3.11
C=CCc1cccc2c(=O)c(C)c(-c3ccccc3)oc12 | 4.67
CCCCOc1ccc(C(N)=O)cc1 | 2.48
C1=C(c2ccccc2)CCCC1 | 4.53
CCCCOCCO | 0.83
O=[N+]([O-])C=Cc1ccc(Cl)cc1Cl | 3.26
CCCCCCN(C)N=Nc1ccc(C(N)=O)cc1 | 3.69
COc1cccc(CNC(=O)C2(O)C(C)CC3C4CCC5=CC(=O)C=CC5(C)C4(F)C(O)CC32C)c1 (configuration not stated) | 3.27
C=CCC1(C(C)CCC)C(=O)NC(=S)NC1=O (configuration not stated) | 3.23
O=[N+]([O-])C=Cc1cccs1 | 1.96
Cc1[nH]cnc1CSCCNc1[nH]ccc(=O)c1[N+](=O)[O-] | -0.2
Cc1ccc(COC(N)=O)cc1 | 1.76
N=C(N)c1ccc(N)cc1 | -0.37
COc1ccc(C(c2ccc(OC)cc2)C(F)(F)F)cc1 | 4.76
OCc1ccccc1O | 0.73
C=C(C)C(=O)OC | 1.38
OC(c1ccccc1)C(O)c1ccccc1 (configuration not stated) | 1.91
NNC(=O)c1ccc(Cl)cc1 | 1.18
Cc1cnc2ccccc2c1 | 2.53
CN(C)C(=O)OCc1ccc(OC(=O)N(C)C)cc1 | 1.59
NC(Cc1c[nH]c2ccccc12)C(=O)O (racemic) | -1.05

SMILES | logP
CCCN(CCC)N=O | 1.36
N#CCc1ccco1 | 0.85
Oc1ccc(C(c2ccccc2)c2ccc(O)cc2)cc1 | 4.3
CN(C)N=Nc1cccc(C(F)(F)F)c1 | 3.78
COc1cnc2ccccc2n1 | 2.31
CC(=O)Nc1ccc(Br)cc1 | 2.29
NNC(=O)c1ccnc(-c2ccccc2)c1 | 1.36
Cn1cccc1C=NNC(=S)Nc1ccccc1 | 3.64
CC(=O)N[C@H](C(=O)N[C@@H](C)C(=O)N[C@@H](C)C(N)=O)C(C)C | -1.4
CCC(=O)O | 0.33
O=C(O)c1cccc([N+](=O)[O-])c1C(=O)O | 0.75
NC(=O)c1ncn2c(=O)n(CCCl)nnc12 | -0.47
COCOC | 0
CC(C)COC(N)=O | 0.65
COC(=O)CNC(=O)c1ccc(N)cc1 | -0.23
COc1cccc(OCC(=O)NNC(C)C)c1 | 1.33
CCCn1cnc2c(N)ncnc21 | 0.74
CC(C)NNC(=O)COc1ccccc1Cl | 1.82
